Test results published in patent US20250296960A1, “PEPTIDE COMPOSITIONS AND METHODS OF USE THEREOF” (priority 2022, published 2025).
Values joined by “and” are separate entries in the source; they are usually repeats but may differ in a detail not shown here. Equal entries are not always repeated.

How the values were obtained:
[1] = Body weight loss in normal C57BL/6 mice, subcutaneous dosing; format: in vivo; conditions: for Weight loss (%): normal mice, after 48 or 72 hours
Description: To confirm the therapeutic effect of the peptide in vivo, polypeptides were administered to mice to measure changes in body weight. […] The peptides were delivered at 0.02% polysorbate 80 (PS80) in PBS and dosing volume was 10 mL/kg. Body weight was monitored 6 h, QD.
To confirm the therapeutic effect of the peptide in obesity, diabetes, or NASH, polypeptides were administered to mice to measure changes in food intake, blood glucose and body weight. […] In addition, a NASH animal model was prepared by feeding a high fat, high fructose, high cholesterol diet to normal C57BL/6 mice (approximately 6 weeks old) for approximately 21 weeks, and increasing the body weights of the mice to approximately 50 g on average. Thereafter, polypeptides were administered by subcutaneous injection at dose of 20 nmol/kg once every other day for 2 weeks. Body weight and food intake were measured once every other day given points of time. After 2 weeks of treatment period, mice were sacrificed, then liver weight, hepatic triglyceride, and NASH related biomarkers were measured.
DD01 administered at 40 nmol/kg, s.c. Q2D as positive control was delivered at 0.02% PS80 in PBS and dosing volume was 10 mL/kg. Body weight was monitored QD for 4 days.
The peptides were delivered at 0.02% PS80 in PBS and dosing volume was 10 mL/kg. Food intake, blood glucose, and body weight changes were monitored QD.

human GLP-1R = molecular target: T1, human GLP-1R (Homo sapiens, UniProt P43220); assay: cAMP assay (HitHunter cAMP) in GLP-1R-expressing CHO-K1 cells (GLP-1R+ cells); format: cell-based
T1 construct: host or cells: CHO-K1
Description: (§1) The cells were seeded in a 96-well plate at 7×10^3 cells/well using cell plate reagent and incubated the cells overnight at 37° C. and 5% CO2. To perform the cAMP detection assay, cell plating reagent were replaced with the cAMP Assay buffer. Each of the wells was then treated with the diluted peptide and incubated for 30 minutes under conditions of a temperature of 37° C. in a CO2 incubator.
(§2) After the incubation, cAMP Antibody reagent and Working cAMP detection solution to all wells. Incubate the plate for 1 hour at Room temperature in the dark. Then, cAMP Solution A was added and incubated for 3 hours at room temperature in the dark. Subsequently, the luminescence was measured using the microplate reader device.

human GCGR = molecular target: T2, human GCGR (Homo sapiens, UniProt P47871); assay: cAMP assay (HitHunter cAMP) in GCGR-expressing CHO-K1 cells (GCGR+ cells); format: cell-based
T2 construct: host or cells: CHO-K1
Description: as §1, §2

human GIPR = molecular target: T3, human GIPR (Homo sapiens, UniProt P48546); assay: cAMP assay (HitHunter cAMP) in GIPR-expressing CHO-K1 cells (GIPR+ cells); format: cell-based
T3 construct: host or cells: CHO-K1
T3 sequence (P48546 22-466): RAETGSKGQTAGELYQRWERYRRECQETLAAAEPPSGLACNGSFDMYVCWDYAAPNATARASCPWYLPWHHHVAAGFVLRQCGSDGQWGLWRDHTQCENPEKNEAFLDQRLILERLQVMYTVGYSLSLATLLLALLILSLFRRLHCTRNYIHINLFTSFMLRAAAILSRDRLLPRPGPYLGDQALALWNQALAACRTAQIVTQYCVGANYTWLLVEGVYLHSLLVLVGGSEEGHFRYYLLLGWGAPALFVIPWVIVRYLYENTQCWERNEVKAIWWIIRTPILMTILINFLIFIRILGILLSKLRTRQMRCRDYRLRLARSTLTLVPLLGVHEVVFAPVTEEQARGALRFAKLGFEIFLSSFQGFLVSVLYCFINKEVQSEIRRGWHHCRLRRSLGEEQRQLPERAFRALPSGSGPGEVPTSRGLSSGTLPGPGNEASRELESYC
Description: as §1, §2

[2] = Table 13, EC50 of STD peptide over EC50 of peptide
[3] = Table 14, normalised to activity at GLP-1R
[4] = Table 19, normalised to activity at GLP-1R
[5] = Table 24, ratio of EC50 of native ligand over peptide

T2 sequence (P47871 26-477): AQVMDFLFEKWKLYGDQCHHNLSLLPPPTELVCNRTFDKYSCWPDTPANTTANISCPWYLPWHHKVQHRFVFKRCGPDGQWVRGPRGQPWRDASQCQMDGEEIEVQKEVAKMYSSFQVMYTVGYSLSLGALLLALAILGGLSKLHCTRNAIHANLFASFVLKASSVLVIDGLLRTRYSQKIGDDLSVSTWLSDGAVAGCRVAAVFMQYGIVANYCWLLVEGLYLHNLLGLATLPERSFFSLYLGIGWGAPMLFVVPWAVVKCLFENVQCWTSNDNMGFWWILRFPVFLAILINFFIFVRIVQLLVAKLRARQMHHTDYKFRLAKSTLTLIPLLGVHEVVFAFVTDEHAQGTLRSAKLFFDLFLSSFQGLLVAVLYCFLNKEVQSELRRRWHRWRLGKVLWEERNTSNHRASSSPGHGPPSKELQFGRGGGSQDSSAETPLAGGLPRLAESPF
T1 sequence (P43220 24-463): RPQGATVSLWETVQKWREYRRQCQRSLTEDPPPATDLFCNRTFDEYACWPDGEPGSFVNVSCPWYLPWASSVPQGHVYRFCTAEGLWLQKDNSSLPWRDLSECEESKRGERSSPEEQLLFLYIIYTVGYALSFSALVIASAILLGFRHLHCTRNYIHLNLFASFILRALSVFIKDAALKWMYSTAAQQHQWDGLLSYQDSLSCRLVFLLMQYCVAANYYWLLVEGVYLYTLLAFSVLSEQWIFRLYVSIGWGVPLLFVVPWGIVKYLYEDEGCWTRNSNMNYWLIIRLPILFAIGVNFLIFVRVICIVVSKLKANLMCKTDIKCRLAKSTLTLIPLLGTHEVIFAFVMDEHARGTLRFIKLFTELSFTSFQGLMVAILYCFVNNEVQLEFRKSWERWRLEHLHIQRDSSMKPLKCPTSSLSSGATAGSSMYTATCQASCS

Compound: CC[C@H](C)[C@H](NC(=O)[C@H](CC(C)C)NC(=O)[C@H](Cc1c[nH]c2ccccc12)NC(=O)[C@H](CCC(N)=O)NC(=O)[C@@H](NC(=O)[C@H](Cc1ccccc1)NC(=O)[C@H](CC(=O)O)NC(=O)[C@H](CCCNC(=N)N)NC(=O)[C@H](C)NC(=O)[C@H](CCSC)NC(=O)[C@H](CCSC)NC(=O)[C@H](Cc1ccc(O)cc1)NC(=O)[C@H](CC(=O)O)NC(=O)[C@H](CC(C)C)NC(=O)[C@H](Cc1ccc(O)cc1)NC(=O)[C@H](CCCCN)NC(=O)[C@H](CO)NC(=O)[C@H](Cc1ccc(O)cc1)NC(=O)[C@H](CC(=O)O)NC(=O)[C@H](CO)NC(=O)[C@@H](NC(=O)[C@H](Cc1ccccc1)NC(=O)[C@@H](NC(=O)CNC(=O)[C@H](CCC(N)=O)NC(=O)C(C)(C)NC(=O)[C@@H](N)Cc1c[nH]cn1)[C@@H](C)O)[C@@H](C)O)C(C)C)C(=O)N[C@@H](CCC(=O)O)C(=O)NCC(=O)NCC(=O)N1CCC[C@H]1C(=O)N[C@@H](CO)C(=O)N[C@@H](CO)C(=O)NCC(=O)N[C@@H](C)C(=O)N1CCC[C@H]1C(=O)N1CCC[C@H]1C(=O)N1CCC[C@H]1C(=O)N[C@@H](CO)C(=O)N[C@@H](CSC1CC(=O)N(CCNC(=O)COCCOCCNC(=O)COCCOCCNC(=O)CC[C@H](NC(=O)CCCCCCCCCCCCCCCCC(=O)O)C(=O)O)C1=O)C(N)=O (some centres unmarked) [5A]
- body weight loss (BWL), in words ([1]; Example 3, 20 nmol/kg QD or 30 nmol/kg Q2D s.c., 4 days): Superior body weight loss
- body weight loss effect, in words ([1]; Example 5, 20 nmol/kg s.c. QD, 4 days): Superior body weight loss effects
- Weight loss (%) ([1]; 10 nmol/kg QD): 15.7 ± 2.2%
- Weight loss (%) ([1]; 20 nmol/kg QD): 20.1 ± 1.3% and 18.8 ± 0.9% and 19.3 ± 1.9% and 22.9 ± 1.5%
- Weight loss (%) ([1]; 30 nmol/kg Q2D): 14.6 ± 1.8%
- Percentage change in EC50 relative to GLP-1 at human GLP-1R (%) (human GLP-1R; Table 9, lipidated (A type) peptides): 201%
- Activity relative to STD peptide (%), GLP-1 (human GLP-1R; [2]): 84%
- Activity relative to GLP-1 (%), GLP-1 (human GLP-1R; [3]): 100%
- Activity relative to STD peptide (%), GLP-1R (human GLP-1R; Table 18): 520%
- Activity relative to GLP-1 (%), GLP-1R (human GLP-1R; [4]): 100%
- Relative % to native ligand, GLP-1R (human GLP-1R; [5]): 201%
- Ratio vs. GLP-1R, GLP-1R (human GLP-1R; Table 25): 100
- Relative % to non-lipidated peptide, GLP-1R (human GLP-1R; Table 26): 33%
- Percentage change in EC50 relative to GCG at human GCGR (%) (human GCGR; Table 10, lipidated (A type) peptides): 14%
- Activity relative to STD peptide (%), Glucagon (human GCGR; [2]): 8%
- Activity relative to GLP-1 (%), Glucagon (human GCGR; [3]): 10%
- Activity relative to STD peptide (%), GCGR (human GCGR; Table 18): 8%
- Activity relative to GLP-1 (%), GCGR (human GCGR; [4]): 2%
- Relative % to native ligand, GCGR (human GCGR; [5]): 14%
- Ratio vs. GLP-1R, GCGR (human GCGR; Table 25): 7
- Relative % to non-lipidated peptide, GCGR (human GCGR; Table 26): 2%
- Percentage change in EC50 relative to GIP at human GIPR (%) (human GIPR; Table 11, lipidated (A type) peptides): 5%
- Activity relative to STD peptide (%), GIP (human GIPR; [2]): 1%
- Activity relative to GLP-1 (%), GIP (human GIPR; [3]): 2%
- Activity relative to STD peptide (%), GIPR (human GIPR; Table 18): 0%
- Activity relative to GLP-1 (%), GIPR (human GIPR; [4]): 0%
- Relative % to native ligand, GIPR (human GIPR; [5]): 5%
- Ratio vs. GLP-1R, GIPR (human GIPR; Table 25): 2
- Relative % to non-lipidated peptide, GIPR (human GIPR; Table 26): 167%
